Reference: ChEMBL document CHEMBL1201862, “PubChem BioAssay data set” (2004)
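These data come from cells grown in 96-well plates and exposed to compound for 48 hours at five concentrations. The concentration for 50% growth inhibition is given as GI50.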 The source made the active and inactive calls. No stated cut-off is given here; in the data, active = GI50 up to about 1.1 µM and inactive = higher.

Columns and labels:
Assay in all cases: DTP human tumour cell line panel, 48 h
OVCAR-4 = tested on: OVCAR-4
IGROV-1 = tested on: IGROV-1
NCI-H522 = tested on: NCI-H522
ACHN = tested on: ACHN
UACC-257 = tested on: UACC-257
U-251 = tested on: U-251
NCI-H226 = tested on: NCI-H226
HCC 2998 = tested on: HCC 2998
786-0 = tested on: 786-0
HT-29 = tested on: HT-29
LOX IMVI = tested on: LOX IMVI
OVCAR-8 = tested on: OVCAR-8
A498 = tested on: A498
SR = tested on: SR
HCT-116 = tested on: HCT-116
SF-539 = tested on: SF-539
OVCAR-3 = tested on: OVCAR-3
EKVX = tested on: EKVX

CC1=C(C)CC2(SC1)C(=O)c1ccccc1C2=O
GI50 (OVCAR-4): > 100 µM (inactive)
GI50 (IGROV-1): > 100 µM (inactive)
GI50 (NCI-H522): > 100 µM (inactive)
GI50 (ACHN): > 100 µM (inactive)
GI50 (UACC-257): > 100 µM (inactive)
GI50 (U-251): > 100 µM (inactive)
GI50 (NCI-H226): > 100 µM (inactive)
GI50 (HCC 2998): > 100 µM (inactive)
GI50 (786-0): > 100 µM (inactive)
GI50 (HT-29): > 100 µM (inactive)
GI50 (LOX IMVI): > 100 µM (inactive)
GI50 (OVCAR-8): > 100 µM (inactive)
GI50 (A498): > 100 µM (inactive)
GI50 (SR): > 100 µM (inactive)
GI50 (HCT-116): > 100 µM (inactive)
GI50 (SF-539): > 100 µM (inactive)

CC(=O)n1c2c(c(=O)n1-c1ccccc1)[S+]([O-])CCC2 (stereo not given)
GI50 (OVCAR-4): 0.705 µM (active)
GI50 (IGROV-1): 99.1 µM (inactive)
GI50 (NCI-H522): 5.65 µM (inactive)
GI50 (ACHN): 46.8 µM (inactive)
GI50 (OVCAR-3): 57.1 µM (inactive)
GI50 (UACC-257): 46.7 µM (inactive)
GI50 (U-251): > 100 µM (inactive)
GI50 (NCI-H226): > 100 µM (inactive)
GI50 (HCC 2998): < 0.01 µM (active)
GI50 (786-0): 40.7 µM (inactive)
GI50 (HT-29): 69.5 µM (inactive)
GI50 (LOX IMVI): > 58.3 µM (inactive)
GI50 (OVCAR-8): > 100 µM (inactive)
GI50 (A498): > 100 µM (inactive)
GI50 (EKVX): > 95.7 µM (inactive)
GI50 (SR): 4.53 µM (inactive)
GI50 (HCT-116): 44.1 µM (inactive)
GI50 (SF-539): 20.4 µM (inactive)

COc1ccc(-c2ccccc2)c2[nH]c3c(c12)CCNC3=O
GI50 (OVCAR-4): > 100 µM (inactive)
GI50 (IGROV-1): > 100 µM (inactive)
GI50 (NCI-H522): > 100 µM (inactive)
GI50 (OVCAR-3): > 100 µM (inactive)
GI50 (UACC-257): > 100 µM (inactive)
GI50 (U-251): > 100 µM (inactive)
GI50 (NCI-H226): > 100 µM (inactive)
GI50 (HCC 2998): > 100 µM (inactive)
GI50 (786-0): > 100 µM (inactive)
GI50 (HT-29): > 100 µM (inactive)
GI50 (LOX IMVI): > 100 µM (inactive)
GI50 (OVCAR-8): > 100 µM (inactive)
GI50 (A498): > 100 µM (inactive)
GI50 (EKVX): > 100 µM (inactive)
GI50 (SR): > 100 µM (inactive)
GI50 (HCT-116): > 100 µM (inactive)
GI50 (SF-539): > 100 µM (inactive)

CC(=O)NC(CCCCNC(=O)N(CCCl)N=O)C(=O)NCc1ccccc1 (stereo not given)
GI50 (OVCAR-4): > 100 µM (inactive)
GI50 (IGROV-1): 51.8 µM (inactive)
GI50 (NCI-H522): > 100 µM (inactive)
GI50 (ACHN): > 100 µM (inactive)
GI50 (OVCAR-3): > 100 µM (inactive)
GI50 (UACC-257): > 100 µM (inactive)
GI50 (U-251): 61.7 µM (inactive)
GI50 (NCI-H226): > 100 µM (inactive)
GI50 (HCC 2998): > 100 µM (inactive)
GI50 (786-0): 35.9 µM (inactive)
GI50 (HT-29): > 100 µM (inactive)
GI50 (OVCAR-8): > 100 µM (inactive)
GI50 (EKVX): > 100 µM (inactive)
GI50 (SR): 91.6 µM (inactive)
GI50 (HCT-116): > 100 µM (inactive)
GI50 (SF-539): 29 µM (inactive)

CCOC(=O)C1Cc2c(ccc(OC)c2OC)C(=O)C1N (stereo not given)
GI50 (OVCAR-4): 82.2 µM (inactive)
GI50 (IGROV-1): > 100 µM (inactive)
GI50 (NCI-H522): > 100 µM (inactive)
GI50 (ACHN): > 100 µM (inactive)
GI50 (OVCAR-3): 93.1 µM (inactive)
GI50 (UACC-257): > 100 µM (inactive)
GI50 (U-251): > 100 µM (inactive)
GI50 (NCI-H226): > 100 µM (inactive)
GI50 (HCC 2998): > 100 µM (inactive)
GI50 (786-0): > 100 µM (inactive)
GI50 (HT-29): > 100 µM (inactive)
GI50 (LOX IMVI): > 100 µM (inactive)
GI50 (OVCAR-8): > 100 µM (inactive)
GI50 (EKVX): 21.5 µM (inactive)
GI50 (SR): 41.2 µM (inactive)
GI50 (HCT-116): > 100 µM (inactive)
GI50 (SF-539): > 100 µM (inactive)

O=C1CC2C=CC1C2CO (stereo not given)
GI50 (OVCAR-4): > 100 µM (inactive)
GI50 (IGROV-1): > 100 µM (inactive)
GI50 (NCI-H522): > 100 µM (inactive)
GI50 (ACHN): > 100 µM (inactive)
GI50 (OVCAR-3): > 100 µM (inactive)
GI50 (UACC-257): > 100 µM (inactive)
GI50 (U-251): > 100 µM (inactive)
GI50 (NCI-H226): > 100 µM (inactive)
GI50 (HCC 2998): > 100 µM (inactive)
GI50 (786-0): > 100 µM (inactive)
GI50 (HT-29): > 100 µM (inactive)
GI50 (LOX IMVI): > 100 µM (inactive)
GI50 (OVCAR-8): > 100 µM (inactive)
GI50 (A498): > 100 µM (inactive)
GI50 (EKVX): > 100 µM (inactive)
GI50 (SR): > 100 µM (inactive)
GI50 (HCT-116): > 100 µM (inactive)
GI50 (SF-539): > 100 µM (inactive)

COc1ccc(-c2cc(O)c3cc4c(cc3n2)OCO4)cc1OC
GI50 (OVCAR-4): > 100 µM (inactive)
GI50 (IGROV-1): > 100 µM (inactive)
GI50 (NCI-H522): > 100 µM (inactive)
GI50 (ACHN): > 100 µM (inactive)
GI50 (OVCAR-3): > 100 µM (inactive)
GI50 (U-251): > 100 µM (inactive)
GI50 (NCI-H226): > 100 µM (inactive)
GI50 (HCC 2998): > 100 µM (inactive)
GI50 (786-0): > 100 µM (inactive)
GI50 (HT-29): > 100 µM (inactive)
GI50 (LOX IMVI): > 100 µM (inactive)
GI50 (OVCAR-8): > 100 µM (inactive)
GI50 (EKVX): > 100 µM (inactive)
GI50 (SR): 45 µM (inactive)
GI50 (HCT-116): > 100 µM (inactive)
GI50 (SF-539): > 100 µM (inactive)

C=C1C(=O)C23[C@H](O)C1CC[C@H]2[C@]12COC3(O)[C@@H](O)[C@@H]1C(C)(C)CC[C@@H]2O
GI50 (OVCAR-4): 18 µM (inactive)
GI50 (IGROV-1): 21.4 µM (inactive)
GI50 (NCI-H522): 0.552 µM (active)
GI50 (ACHN): 16.1 µM (inactive)
GI50 (OVCAR-3): 14.8 µM (inactive)
GI50 (UACC-257): 15.5 µM (inactive)
GI50 (U-251): 6.04 µM (inactive)
GI50 (HCC 2998): 15.8 µM (inactive)
GI50 (786-0): 11 µM (inactive)
GI50 (HT-29): 14.4 µM (inactive)
GI50 (LOX IMVI): 14.2 µM (inactive)
GI50 (OVCAR-8): 13.4 µM (inactive)
GI50 (A498): 9.1 µM (inactive)
GI50 (EKVX): 19.7 µM (inactive)
GI50 (SR): 1.34 µM (inactive)
GI50 (HCT-116): 7.28 µM (inactive)
GI50 (SF-539): 6.98 µM (inactive)
